Data taken from the supplement of paper PMC10307832.

What was measured:
Assay in all cases: relative viability (nuclei count vs DMSO), 5 days (fraction); higher = more cells survive
[1] = compound: CS(=O)(=O)c1ccc(-c2cnc(N)c(C(=O)Nc3ccccc3)n2)cc1 [VE-821] + Cc1nc(NC(=O)N2CCC[C@H]2C(N)=O)sc1-c1ccnc(C(C)(C)C(F)(F)F)c1 [Alpelisib] (partner 2 µM)
Method in brief: (§1)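 Nuclei were stained with Hoechst during a one-step fixation (final 0.05% Triton X-100, 1% formaldehyde, 1 ug/ml Hoechst) carried out 5 days after dosing, then counted on 4× images. The cells, lung cancer lines in 1536-well plates, had been dosed by pin tool the day after seeding with one drug alone or a fixed anchor-drug dose plus five library-drug doses (not always all listed) in √10 steps. Relative viability is the nuclei count in treated wells divided by that in vehicle wells, and each value is the median of duplicate plates.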

[2] = compound: CS(=O)(=O)c1ccc(-c2cnc(N)c(C(=O)Nc3ccccc3)n2)cc1 [VE-821] + O=C(c1cc(Cc2n[nH]c(=O)c3ccccc23)ccc1F)N1CCN(C(=O)C2CC2)CC1 [Olaparib] (partner 8 µM)
Method in brief: as §1

[3] = compound: CS(=O)(=O)c1ccc(C(=O)Nc2ccc(Cl)c(-c3ccccn3)c2)c(Cl)c1 [Vismodegib] + CC(=O)Nc1cccc(-n2c(=O)n(C3CC3)c(=O)c3c(Nc4ccc(I)cc4F)n(C)c(=O)c(C)c32)c1 [Trametinib] (partner 0.02 µM)
Method in brief: as §1

[4] = compound: CS(=O)(=O)c1ccc(C(=O)Nc2ccc(Cl)c(-c3ccccn3)c2)c(Cl)c1 [Vismodegib] + CS(=O)(=O)CCNCc1ccc(-c2ccc3ncnc(Nc4ccc(OCc5cccc(F)c5)c(Cl)c4)c3c2)o1 [Lapatinib] (partner 2 µM)
Method in brief: as §1

Cell Line	relative viability ([1]; first compound 0.08 µM)	relative viability ([1]; first compound 0.253 µM)	relative viability ([1]; first compound 0.8 µM)	relative viability ([1]; first compound 2.53 µM)	relative viability ([1]; first compound 8 µM)	relative viability ([2]; first compound 0.08 µM)	relative viability ([2]; first compound 0.253 µM)	relative viability ([2]; first compound 0.8 µM)	relative viability ([2]; first compound 2.53 µM)	relative viability ([2]; first compound 8 µM)	relative viability ([3]; first compound 0.08 µM)	relative viability ([3]; first compound 0.253 µM)	relative viability ([3]; first compound 0.8 µM)	relative viability ([3]; first compound 2.53 µM)	relative viability ([3]; first compound 8 µM)	relative viability ([4]; first compound 0.08 µM)	relative viability ([4]; first compound 0.253 µM)	relative viability ([4]; first compound 0.8 µM)	relative viability ([4]; first compound 2.53 µM)	relative viability ([4]; first compound 8 µM)
NCI-H727	0.687	0.683	0.585	0.551	0.425	0.725	0.694	0.765	0.682	0.66	0.446	0.367	0.405	0.403	0.418	0.814	0.653	0.585	0.826	0.874
NCI-H838	1.1	0.955	0.911	0.966	0.907	0.866	0.856	0.765	0.638	0.365	0.536	0.488	0.535	0.5	0.624	0.888	1.01	0.987	0.99	1.09
NCI-H1355	0.911	0.803	0.562	0.8	0.531	0.822	0.719	0.66	0.716	0.351	0.47	0.417	0.392	0.39	0.406	0.93	0.923	0.844	0.951	0.957
NCI-H1395	1.46	1.08	0.705	1.14	0.659	0.422	0.49	0.481	0.441	0.438	0.851	0.958	0.878	0.921	1.1	1.06	0.899	0.855	0.927	1.18
NCI-H1437	1.02	0.901	0.693	0.993	0.705	0.66	0.739	0.628	0.525	0.386	0.462	0.485	0.493	0.535	0.536	0.741	0.791	0.783	0.816	0.762
NCI-H1651	1.09	1.08	0.702	1.01	0.849	0.187	0.204	0.19	0.163	0.165	0.813	0.822	0.81	0.815	0.84	0.869	0.867	0.852	0.83	0.89
NCI-H1666	1.03	1.02	0.887	0.926	0.58	0.758	0.742	0.839	0.944	0.79	0.816	0.852	0.836	0.899	0.904	0.72	0.616	0.453	0.558	0.879
NCI-H1734	0.804	0.745	0.468	0.758	0.553	0.708	0.673	0.558	0.498	0.303	0.627	0.566	0.636	0.689	0.817	1.04	1.02	0.96	0.957	1
NCI-H1755	1.01	0.887	0.622	0.946	0.62	0.928	0.859	0.854	0.893	0.719	0.82	0.765	0.78	0.709	0.834	1	1	1.06	1.02	1.04
NCI-H1792	0.846	0.919	0.584	0.587	0.681	0.632	0.507	0.364	0.417	0.201	0.392	0.447	0.361	0.376	0.398	0.851	0.97	0.872	0.79	0.878
NCI-H1793	0.689	0.681	0.497	0.727	0.687	1	0.878		0.763	0.547		0.366	0.479	0.409	0.413		0.667	0.658	0.671	0.676
NCI-H1915	1.13	1.03	1.06	1.16	0.941	0.274	0.274	0.201	0.202	0.152	0.295	0.282	0.303	0.303	0.335	0.936	0.975	0.995	0.901	0.978
NCI-H1944	0.954	0.804	0.53	0.885	0.452	0.434	0.417	0.356	0.366	0.225	0.386	0.395	0.425		0.399	0.925	0.746	0.801	0.79	0.972
NCI-H1975	0.621	0.598	0.46	0.534	0.406	0.883	0.715	0.672	0.57	0.334	0.32	0.24	0.374	0.357	0.331	0.848	0.819	0.966	0.803	0.946
NCI-H1993	0.704	0.757	0.655	0.702	0.633	1.21	0.943	1.03	1.01	0.942	0.508	0.607	0.549	0.438	0.492	0.745	1.02	0.806	0.788	0.777
NCI-H2009	1.11	1.18	1.12	1.19	1.28	0.701	0.661	0.57	0.566	0.499	0.313	0.321	0.309	0.291	0.331	0.901	0.891	0.892	0.899	0.788
